In patent publication US20260183408A1, “POLYPEPTIDE AND USE THEREOF” (SHENZHEN CHENYANG BIOLOGICAL TECHNOLOGY CO., LTD, priority 2022, published 2026):

Tests used:
Assay type in all cases: in vivo, mouse
CRS mice [1] = assay: Open field test (OFT, total distance); conditions: single intraperitoneal 3 nmol/g, 1 hour after treatment (FIG. 12)
Experimental: (§1) The C57BL/6J mice were horizontally fixed for 6 h (from 10 to 16 o'clock) in a first acrylic restraint which is cylindrical and flat-bottomed (25×90 mm) every day for 2 weeks. The filter had several slots which could adapt to the size of each mouse to firmly restrain the mouse and inhibit body movements of the limb and trunk without causing pain. Immediately after being restrained, the mice were sent back to their cages. Unrestrained mice (control) stayed in their cages when no CRS procedure was performed. Neither the control mice nor the CRS mice could have access to food and water during the CRS exposure.
(§2) The C57BL/6J mice were subjected to various stress including restraint (for 4 h), cage tilting (for 45 times, with 12 h each time), light-dark cycle reversal (once), flash (for 12 h), and dirty cage (for 2 times, with 14 h each time). The protocol lasted 6 weeks. Control mice were not subjected to corresponding stress.
(§3) The mice were treated with TAT or TAT-D2R-KL (single intraperitoneal administration at 3 nmol/g in both cases). […]
OFT (for testing the total distance): The mice were acclimated to the experimental environment for 1 h and placed in a chamber of 45 cm×45 cm×30 cm. A video was recorded for 5 min to observe the motional activity of the mice. The total distance covered by the mice was measured, analyzed and expressed in millimeters.

CRS mice [2] = assay: Forced swimming test (FST); conditions: single intraperitoneal 3 nmol/g, 1 hour after treatment, compared with TAT-treated mice (FIG. 12)
Experimental: as §1, §2, §3
FST: The mice were placed in a cylinder (having a height of 70 cm and a diameter of 30 cm) made of organic glass and filled with water (with water temperature at 23±1° C.), wherein the water level was more than 30 cm from the bottom. The mice were recorded in video for 5 min, then the video was analyzed, and the immobility time was recorded. […]

CRS mice [3] = assay: Tail suspension test (TST); conditions: single intraperitoneal 3 nmol/g, 1 hour after treatment, compared with TAT-treated mice (FIG. 12)
Experimental: as §1, §2, §3
TST: The mice were suspended with a tape to a position 40 cm above the floor within a rectangular compartment (length 55 cm× width 20 cm× depth 11.5 cm). A video was recorded for a total of 5 minutes, and the immobility time was recorded. […]

Q: Which results are given for “TAT-D2R-KL: C-terminus of the KL (K226-L240) region of D2R fused to the transduction domain of HIV-1 Tat protein (SEQ ID NO: 5)”?
A: overall movement ability (total distance) (CRS mice [1]): had no effect; immobility time (FST) (CRS mice [2]): significantly reduced; immobility time (TST) (CRS mice [3]): significantly reduced
